# From patent US20050256302A1, “Novel peptides having camp producing activity” (Japan Science and Technology Agency, priority 2002, published 2005)
# Where a SMILES comes first, the peptide text is derived from it. Bridges are numbered along the chain shown (N, C = ends).
# Key:
# [1] = target: T1, Pig calcitonin receptor (CTR) (Sus scrofa, UniProt P25117); assay: Incorporation of sodium ion (22Na) in OK cells expressing CTR; type: cell-based; details: CTR expressed in OK cells
# T1 construct: expressed in transfected cells; host or cells: COS-7 (given as rhesus monkey renal cells), vector pcDNA 3.1
# T1 sequence (P25117 30-498): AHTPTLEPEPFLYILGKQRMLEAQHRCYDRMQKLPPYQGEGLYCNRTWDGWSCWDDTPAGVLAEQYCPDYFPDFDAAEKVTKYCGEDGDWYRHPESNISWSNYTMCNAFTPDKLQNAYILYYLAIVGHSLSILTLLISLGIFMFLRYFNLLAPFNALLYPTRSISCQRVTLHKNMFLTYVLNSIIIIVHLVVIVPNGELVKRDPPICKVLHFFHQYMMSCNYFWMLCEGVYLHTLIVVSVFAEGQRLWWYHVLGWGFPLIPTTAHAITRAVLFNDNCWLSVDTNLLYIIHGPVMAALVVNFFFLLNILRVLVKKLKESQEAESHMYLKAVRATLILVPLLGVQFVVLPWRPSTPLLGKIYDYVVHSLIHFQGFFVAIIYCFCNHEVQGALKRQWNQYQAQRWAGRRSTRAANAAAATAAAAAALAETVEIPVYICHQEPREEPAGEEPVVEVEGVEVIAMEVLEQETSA
# Description: (§1) Pig calcitonin receptor (CTR) was introduced into a mammalian expression vector pcDNA 3.1, expressed in rhesus monkey renal cells (COS-7) and production amount of cAMP by stimulation of CRSP was measured by radioimmunoassay. Similarly, CTR was expressed in opossum renal cells (OK cells) and production amount of cAMP by stimulation of CRSP was measured by radioimmunoassay while incorporation of sodium ion was measured by measuring the incorporation of sodium chloride having radioactivity (^22Na) by a gamma-counter. The results are shown in FIG. 10 (changes in cAMP productivity by CRSP stimulation in cells (COS-7) where calcitonin receptor was expressed in a genetic engineering manner), FIG. 11 (changes in cAMP productivity in opossum renal epithelial cells where pig calcitonin receptor (CTR) was expressed) and FIG. 12 (changes in incorporation of sodium ion in opossum renal epithelial cells where pig calcitonin receptor (CTR) was expressed).
# (§2) Similarly, CTR was expressed in opossum renal cells (OK cells) and production amount of cAMP by CRSP stimulation was measured by radioimmunoassay while incorporation of sodium ion was measured by incorporation of radioactive sodium chloride (^22Na) using a gamma-counter.
# [2] = target: T1, Pig calcitonin receptor (CTR); assay: cAMP production in opossum renal epithelial cells (OK cells) expressing CTR; type: cell-based; details: CTR expressed in OK cells
# Description: as §1, §2
# [3] = Blood pressure of anesthetized rats; type: in vivo; details: rat, 16 nmol/kg from jugular vein
# Description: CRSP corresponding to an amount of 16 nmol/kg dissolved in a physiological saline solution was administered at a time within a short period from jugular vein of rat under an anesthetized condition and calcium concentration in the plasma and blood pressure were measured. The results are shown in FIG. 13 (changes in calcium concentration in blood by administration of CRSP) and FIG. 14 (changes in blood pressure by administration of CRSP).
# CRSP corresponding to the amount of 16 nmol/kg dissolved in a physiological saline solution was administered at a time within short period from […] of rat under an anesthetized condition.
# [4] = test system: LLC-PK1 cells; assay: Suppression of cell proliferation (125I-DU incorporation, cell count); type: cell-based, pig; details: 125I-DU incorporation and cell count
# Description: A solution of each peptide in DMEM in each concentration was added to LLC-PK1 cells, then DMEM (containing 0.1% BSA) which contained bromodeoxyuridine labeled with ^125I (^125I-DU) was added to each well and, after 5 hours, radioactivity incorporated into the nuclei was measured by a gamma-counter to measure the DNA amount synthesized as a result of cell proliferation.
# With regard to the number of proliferated cells, each solution of CRSP in DMEM in various concentrations was added to LLC-PK1 cells of 10,000 cells/well, incubation was conducted, the cells on the incubation dish was taken out by a trypsin-EDTA solution and cell numbers were counted using a counting plate.
# LLC-PK1 cells were incubated for two days in a DMEM (containing 10% of FCS) on a 24-well collagen plate, once washed with a DMEM and substituted with a DMEM (containing 10% of FCS) containing 0 and 10^−12 to 10^−6 M of CRSP followed by incubating. After 2 hours, a DMEM (containing 0.1% of BSA) containing ^125I-labeled bromodeoxyuridine was added to each well and, after 5 hours, radioactivity incorporated into the nuclei was measured by a gamma-counter whereupon the amount of DNA synthesized as a result of cell proliferation was measured.
# Similarly, LLC-PK1 cells of 10,000 cells/well were sown on a 24-well collagen plate and incubated with a DMEM (containing 10% of FCS) for 24 hours. […]
# [5] = target: T1, Pig calcitonin receptor (CTR); assay: cAMP production in COS-7 cells expressing pig calcitonin receptor; type: cell-based
# Description: Pig calcitonin receptor (CTR) was introduced into a mammalian expression vector pcDNA 3.1, expressed in rhesus monkey renal cells (COS-7) and production amount of cAMP by stimulation of CRSP was measured by radioimmunoassay. Similarly, CTR was expressed in opossum renal cells (OK cells) and production amount of cAMP by stimulation of CRSP was measured by radioimmunoassay while incorporation of sodium ion was measured by measuring the incorporation of sodium chloride having radioactivity (^22Na) by a gamma-counter.
# Pig calcitonin receptor (CTR) was introduced into mammalian expression vector pcDNA 3.1 and then expressed in rhesus monkey renal cells (COS-7) whereupon production amount of cAMP by CRSP stimulation was measured by radioimmunoassay.
# Pig calcitonin receptor (CTR) was introduced into a mammalian expression vector pcDNA 3.1 and expressed in rhesus monkey renal cells (COS-7) and production amount of cAMP by CRSP stimulation was measured by radioimmunoassay.
# Pig calcitonin receptor (CTR) was introduced into a mammalian expression vector pcDNA 3.1, then expressed in rhesus monkey renal cells (COS-7) and production amount of cAMP by CRSP or CRSP-Gly stimulation was measured-by radioimmunoassay.
compound,measurement,setting,value
CSCC[C@H](NC(=O)[C@H](CCCCN)NC(=O)[C@@H](NC(=O)[C@@H]1CCCN1C(=O)[C@H](CC(C)C)NC(=O)[C@H](CC(C)C)NC(=O)[C@H](CC(N)=O)NC(=O)[C@H](CO)NC(=O)[C@H](CCCNC(=N)N)NC(=O)[C@@H](NC(=O)[C@H](CCSC)NC(=O)[C@H](CO)NC(=O)CNC(=O)[C@H](CO)NC(=O)[C@H](CCCNC(=N)N)NC(=O)[C@H](CO)NC(=O)[C@H](CC(C)C)NC(=O)[C@H](CC(C)C)NC(=O)CNC(=O)[C@@H](NC(=O)[C@H](CC(C)C)NC(=O)[C@H](CCCNC(=N)N)NC(=O)[C@H](Cc1c[nH]cn1)NC(=O)[C@@H](NC(=O)[C@H](CCSC)NC(=O)[C@@H]1CSSC[C@H](NC(=O)[C@@H](N)CO)C(=O)N[C@@H](CC(N)=O)C(=O)N[C@@H]([C@@H](C)O)C(=O)N[C@@H](C)C(=O)N[C@@H]([C@@H](C)O)C(=O)N1)[C@@H](C)O)C(C)C)C(C)C)[C@@H](C)O)C(=O)NCC(=O)N[C@@H](Cc1ccccc1)C(=O)N[C@@H](CCCCN)C(=O)N[C@H](C(=O)N[C@@H](Cc1ccccc1)C(=O)NCC(N)=O)C(C)C [CRSP] (H-SCNTATCMTHRLVGLLSRSGSMVRSNLLPTKMGFKVFG-NH2; disulfide 2-7),amyloride-sensitive Na/H co-transporter,[1],activated
same,incorporation of sodium into cells,[1],promoted
same,intracellular adenylyl cyclase activity,[2],increases
same,blood pressure,[3],no apparent change
same,growth of LLC-PK1 cells,[4],suppressing the growth of LLC-PK1 cells
same,"cAMP productivity, CRSP compared with CRSP-Gly",[5]; CTR expressed in COS-7,nearly the same cAMP productivity
same,activity stronger than pig calcitonin,"[5]; CTR expressed in COS-7, ratio of ED50",about 350 fold
same,EC50,"[5]; CTR expressed in COS-7, read-out: ED50, increase of intracellular adenylyl cyclase activity (cAMP production)",~0.2 nM
